Reference: patent US20250376522A1, “Targeting Cells with a Combination of CXCR2 Inhibition and CD47 Blockade” (The Board of Trustees of the Leland Stanford Junior …, priority 2022, published 2025)

Experiments:
[1] = target: T1, CXCR2 (Homo sapiens, UniProt P25025); conditions: cited from earlier work
T1 sequence (P25025 1-360): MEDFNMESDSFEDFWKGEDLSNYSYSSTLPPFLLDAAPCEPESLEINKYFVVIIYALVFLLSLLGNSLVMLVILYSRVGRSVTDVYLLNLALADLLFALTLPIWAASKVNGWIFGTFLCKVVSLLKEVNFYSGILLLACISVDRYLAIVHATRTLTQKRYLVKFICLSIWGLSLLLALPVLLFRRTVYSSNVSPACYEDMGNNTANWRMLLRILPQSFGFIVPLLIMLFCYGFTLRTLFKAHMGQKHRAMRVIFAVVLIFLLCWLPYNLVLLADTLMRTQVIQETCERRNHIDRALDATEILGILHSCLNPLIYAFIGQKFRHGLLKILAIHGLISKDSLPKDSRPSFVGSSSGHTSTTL

[2] = system: B16-F10 melanoma; assay: B16-F10 melanoma in control and Poly I:C-treated CSF1R Fl/Fl-Mx1-Cre mice treated with CXCR2 inhibitor; format: in vivo, mouse
Protocol: FIGS. 5A-5D. A) CSF1R^FI/FI-Mx1-Cre mice received three intraperitoneal injections of Poly I:C (100 ug) and were rested for one week. 5×10^5 B16-F10 mouse melanoma cells were then subcutaneously engrafted into flanks of control and Poly I:C-treated CSF1R^FIFI-Mx1-Cre mice. Following the day of engraftment, mice were either untreated or treated daily with 2 mg/kg SB225002 (CXCR2 inhibitor). Burden of B16-F10 melanoma tumors in control and Poly I:C-treated CSF1R^FIFI-Mx1-Cre mice treated with or without SB225002. Data are mean±s.e.m. (n=5 mice per group). B) Flow cytometry analysis of M-MDSCs and G-MDSCs in tumors of mice. MDSCs are gated on CD11b+ cells. Data are mean±s.e.m. (n=5 mice per group). C) Flow cytometry analysis of M-MDSCs and G-MDSCs in bone marrow of tumor-bearing mice. MDSCs are gated on CD11b+ cells. Data are mean±s.e.m. (n=5 mice per group). D) Flow cytometry analysis of M-MDSCs and G-MDSCs in the peripheral blood of tumor-bearing mice. MDSCs are gated on CD11b+ cells. Data are mean±s.e.m. (n=5 mice per group).
Targeting G-MDSCs in B16-F10 melanoma with a CXCR2 inhibitor. To determine whether targeting CXCR2+ G-MDSCs could lead to an anti-tumor response, poly I:C and PBS mice were subcutaneously engrafted with B16-F10 melanoma. The day after engraftment, mice were treated intraperitoneally with PBS or SB225002 six days per week. […] Tumors were harvested and subjected to flow cytometry for immunophenotyping.
Flow cytometry. Samples were blocked with monoclonal antibody to CD16/32 (TruStain fcX, BioLegend) before staining with antibody panels. Samples were stained for 30 min on ice, and subsequently washed with FACS buffer (PBS with 1% FBS buffer). Fluorescence compensations were performed using single-stained UltraComp eBeads (Affymetrix). The following antibodies were used for FACS analysis: Anti-CD11b (M1/70 BD Biosciences); Anti-F4/80 (BM8 BioLegend); Anti-Ly6G (1A8 BioLegend), Anti-Ly6C (HK1.4 BioLegend); Anti-CXCR2 (SA044G4 BioLegend). SYTOX blue dead cell stain (Invitrogen) was used for dead cell exclusion. Data was acquired using a FACSAria II cell sorter (BD Biosciences) and analyzed using FlowJo software.
In vivo tumor experiments and treatments. Mice 6-8 weeks of age were given subcutaneous injection of B16-F10 melanoma cells in PBS into the right flank. Tumor growth was measured by using calipers and volumes were calculated by using the formula: volume= 4/3π×(x/2)2×(y/2), where x is the largest measurable dimension of the tumor and y is the dimension immediately perpendicular to x. Tumor volumes were evaluated using two-way ANOVA in GraphPad Prism. For tumor treatments, mice were given mouse IgG1 isotype control clone MOPC21 (BioXCell), anti-CD47 mAb clone MIAP410 (BioXCell), or SB225002 (ToCris) by intraperitoneal injection.

[3] = system: CXCR2+ G-MDSCs; assay: Thioglycolate-induced peritonitis, G-MDSC recruitment to peritoneum (flow cytometry); format: in vivo, mouse; conditions: 2 mg/kg IP at thioglycolate infusion and 12 hr later; peritoneal cells harvested at 24 h; control and Poly I:C-treated mice
Protocol: FIGS. 3A-3B. A) Representative flow cytometry plots of CXCR2 expression on peritoneal M-MDSCs and G-MDSCs of control and Poly I:C-treated CSF1R^FIFI-Mx1-Cre mice (n=5 mice). Peritoneal cells were harvested […] after thioglycolate infusion (n=5 mice). B) Representative flow cytometry plots of peritoneal M-MDSCs and G-MDSCs harvested 24 hrs after thioglycolate infusion of control and Poly I:C-treated CSF1R^FI/FI-Mx1-Cre mice (n=5 mice). Mice were either untreated or treated with 2 mg/kg SB225002 (CXCR2 inhibitor) at time of thioglycolate infusion and 12 hrs before harvesting (n=5 mice).
Blocking G-MDSC recruitment in thioglycolate-induced peritonitis with a CXCR2 inhibitor. The C-X-C chemokine receptor 2 (CXCR2) signaling axis plays a key role in the migration of immunosuppressive MDSCs. To identify whether these subsets of MDSCs in the peritoneal cavity elicited through thioglycolate-induced peritonitis express CXCR2, peritoneal cells were harvested 24 hours after intraperitoneal injection of thioglycolate and were analyzed by flow cytometry (FIG. 3A). […] At the 24 h time point, peritoneal cells were harvested and analyzed by flow cytometry (FIG. 3B).
Flow cytometry. […] Fluorescence compensations were performed using single-stained UltraComp eBeads (Affymetrix). […] Data was acquired using a FACSAria II cell sorter (BD Biosciences) and analyzed using FlowJo software. […]

[4] = target: T2, CXCR1 (Homo sapiens, UniProt P25024); conditions: read-out: Kd of IL-8 binding to CXCR1; cited from earlier work
T2 sequence (P25024 1-350): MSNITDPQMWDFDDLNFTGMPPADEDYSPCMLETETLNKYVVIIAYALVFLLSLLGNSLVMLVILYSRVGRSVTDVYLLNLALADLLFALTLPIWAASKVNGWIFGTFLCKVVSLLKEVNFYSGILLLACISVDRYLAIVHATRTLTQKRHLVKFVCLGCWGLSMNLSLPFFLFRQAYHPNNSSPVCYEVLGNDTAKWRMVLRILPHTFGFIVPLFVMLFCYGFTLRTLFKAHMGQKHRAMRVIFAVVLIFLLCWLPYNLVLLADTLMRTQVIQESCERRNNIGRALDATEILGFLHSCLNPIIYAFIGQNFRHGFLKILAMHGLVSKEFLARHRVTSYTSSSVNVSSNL

[5] = target: T1, CXCR2; conditions: read-out: Kd of IL-8 binding to CXCR2; cited from earlier work

CC[C@@H](Nc1c(Nc2cccc(C(=O)N(C)C)c2O)c(=O)c1=O)c1ccc(C)o1 [Navaraxin, Navarixin]
Selective/Pan [1]: Selective

O=C(Nc1ccc([N+](=O)[O-])cc1O)Nc1ccccc1Br [SB225002]
Tumor progression (burden of B16-F10 melanoma tumors) ([2]; 2 mg/kg intraperitoneally from the day after engraftment, especially in mice expressing CSF1R): significantly decreased tumor progression
G-MDSCs in bone marrow of tumor-bearing mice ([2]; bone marrow, flow cytometry): significant decrease of G-MDSCs
G-MDSCs in peripheral blood of tumor-bearing mice ([2]; peripheral blood, flow cytometry): significant decrease of G-MDSCs
Tumor-infiltrating G-MDSCs ([2]; tumors, flow cytometry, gated on CD11b+ cells): significant decrease in tumor-infiltrating G-MDSCs
Selective/Pan [1]: Selective
Percentage of G-MDSCs in the peritoneal cavity [3]: significantly decreased percentage of G-MDSCs

O=C(Nc1ccc(F)cc1)c1cnc(SCc2cc(OC(F)(F)F)ccc2B(O)O)nc1 [SX-682]
Selective/Pan [1]: Pan

IL-8: chemokine ligand of CXCR1 and CXCR2
Kd [4]: ~4 nM
Kd [5]: ~4 nM
